Patent publication US20180369203A1, “METHODS OF TREATING CANCER BY ADMINISTERING A MEK INHIBITOR IN COMBINATION WITH A PROTEASOME INHIBITOR” (The Jackson Laboratory, priority 2015, published 2018)

Columns and labels:
HSF1 = assay: Dual HSF1 reporter assay (HSE-SEAP / CMV-GLuc) in HEK293T cells; type: cell-based; details: 20 μM U0126, 20 nM AZD6244, 1 μM FR180204 or 100 nM Sch772984
Procedure: (A) NIH3T3 cells were treated with HS at 43° C. for 30 min, 10 μM tubastatin A for 5 hr, 40 μM VER155008 for 1 hr, 500 nM MG132 for 1 hr, 200 nM 17-DMAG for 1 hr, and 2.5 mM azetidine for 15 min (B) The dual ELK1 reporter system, comprising a serum response element (SRE)-driven secreted embryonic alkaline phosphatase (SEAP) plasmid and a CMV-driven Gaussia luciferase (GLuc) plasmid, was transfected into HEK293T cells. After 24 hr, cells were treatments as in (A) and recovered overnight before measuring reporter activities (mean±SD, n=6, ANOVA). (C and D) NIH3T3 cells were treated with 20 μM U0126 or 20 nM AZD6244 for 3 hr followed by HS and 4-hr recovery. mRNA levels were quantitated by qRT-PCR (mean±SD, n=3, Student's t-test). (E) Immediately after HS, nuclear proteins of NIH3T3 cells treated as in (C) were extracted to measure HSF1-DNA binding by an ELISA-based assay (mean±SD, n=3, ANOVA). (F) HEK293T cells were transfected with dual HSF1 reporter plasmids, a heat-shock element (HSE)-driven SEAP plasmid and a CMV-GLuc plasmid. […] (G) HEK293T cells were treated with different inhibitors overnight. […] After 24 hr, cells were heat shocked at 43° C. for 30 min followed by overnight recovery (mean±SD, n=3, ANOVA). […]
FIGS. 8A-H illustrate that MEK and ERK inversely regulate the PSR. […] Cell viability was measured by a Guava EasyCyte™ flow cytometer using Guava ViaCount™ reagents (mean±SD, n=5, Student's t test). […] Levels of ERK1 and ERK2 mRNAs were quantitated in HEK293T cells transfected with ERK1-targeting siRNAs by qRT-PCR (mean±SD, n=3, ANOVA). […] Levels of ERK2 and ERK1 mRNAs were quantitated in HEK293T cells transfected with ERK2-targeting siRNAs by qRT-PCR (mean±SD, n=3, ANOVA).
Plasmids were transfected with TurboFect transfection reagent (Thermo Scientific). SEAP and luciferase activities in culture supernatants were quantitated using a Ziva® Ultra SEAP Plus Detection Kit (Jaden BioScience) and a Gaussia Luciferase Glow Assay Kit (Thermo Scientific), respectively. Luminescence signals were measured by a VICTORS Multilabel plate reader (PerkinElmer).

ERK = assay: Immunoblotting of ERK and MSK1 phosphorylation in HEK293T cells; type: cell-based; details: inhibitors overnight
Procedure: Whole-cell protein extracts were prepared in cold cell-lysis buffer (100 mM NaCl, 30 mM Tris-HCl pH 7.6, 1% Triton X-100, 30 mM NaF, 1 mM EDTA, 1 mM sodium orthovanadate, and Halt™ protease inhibitor cocktail from Thermo Scientific). Proteins were separated on SDS-PAGE gels and transferred to nitrocellulose membranes. Primary antibodies were applied in wash buffer overnight at 4° C. Peroxidase-conjugated secondary antibodies were applied at room temperature for 1 hr, and signals were visualized by SuperSignal West chemiluminescent substrate (Thermo Fisher Scientific), followed by exposure to films.

[1] = tested on: ERK complexes precipitated from HEK293T cells; assay: In vitro kinase assay with immunoprecipitated ERK complexes; type: biochemical; details: 1000 ng MBP
Procedure: Co-expressed GFP proteins served as internal controls. […] See also FIG. 10.
Samples were boiled for 5 min to stop reactions.

HSF1 Ser326 = HSF1 Ser326 phosphorylation by immunoblotting in HEK293T cells; type: cell-based; details: overnight, 20 μM U0126, 20 nM AZD6244, 1 μM FR180204 or 100 nM Sch772984
Procedure: This figure is related to FIG. 3. (A) Validation of phospho-HSF1 Ser326 antibodies. […] (B) MEK blockade impairs HSF1 Ser326 phosphorylation. […] (D-E) S326A mutation impairs HSF1 nuclear translocation. […] (F) Acute MEK depletion diminishes HSF1 proteins. […] HSF1 proteins were detected by immunoblotting. (G) ERK-mediated HSF1 Ser307 phosphorylation depends on MEK. […] Levels of phosphor-HSF1 Ser307 were measured by immunoblotting. (H) HSF1 Ser326 phosphorylation inhibits Ser307 phosphorylation.

A2058 cells [2] = assay: Ubiquitination proteomics (UbiScan, LC-MS/MS) of A2058 cells; type: cell-based, human; details: 20 nM AZD6244, 8 hrs vs DMSO
Procedure: (A) GFP and GFP-GR plasmids were co-transfected into HEK293T cells followed by treatments with 20 nM AZD6244, 20 μM U0126, or 200 nM 17-DMAG for 4 hr. (B) GFP-GR plasmids were co-transfected into HEK293T cells with HA-Ub-K48 plasmids, which encode a mutant ubiquitin that can be conjugated to protein substrates only via lysine 48. Following treatments with 20 nM AZD6244 or 200 nM 17-DMAG for 4 hr, GFP-GR proteins were precipitated and ubiquitination was detected using anti-HA antibodies. (C) Denatured firefly luciferases were incubated with lysates of A2058 cells treated with DMSO or 20 nM AZD6244 (mean±SD, n=4, ANOVA). (D) A2058 cells were treated with 20 nM AZD6244, and ubiquitinated proteins were detected in both detergent-soluble and -insoluble fractions using Lys48-specific ubiquitin antibodies. […] (G) Experimental procedures of MS-based quantitation of ubiquitinated peptides, two technical replicates per treatment. […] (Q) Endogenous RPL15 and RPL3 proteins were detected in A2058 cells treated with 20 nM AZD6244 alone or co-treated with 500 nM MG132. (R) Endogenous RPL15 and RPL3 proteins were detected in A2058 cells stably expressing LacZ or HSF1^S326D with AZD6244 treatment. […]
A2058 cells were grown in 150 mm culture dishes and treated with DMSO or 20 nM AZD6244 for 8 hrs. […] Two technical replicates were analyzed for each treatment.

A2058 cells [3] = assay: Experimental melanoma metastasis, i.v. luciferase-expressing A2058 cells in NOD/SCID mice; type: in vivo; details: n=10 per group
Procedure: FIGS. 6A-N show combined MEK and proteasome inhibition exerts potent tumor-suppressive effects. (A) After treatments with 20 nM AZD6244, 100 nM Bortezomib, or both for 24 hr, viable cells were quantitated by CellTiter® Blue (mean±SD, n=6, ANOVA). (B and C) 1×10^6 A2058 cells were s.c. injected into NOD/SCID mice. After 7 days, mice were treated with DMSO, 5 mg/Kg AZD6244, 0.5 mg/Kg Bortezomib, or the combination via i.p. injection three times a week. Tumor volumes were measured using a caliper weekly (mean±SEM, ANOVA). Tumor growth curves were fitted to exponential growth models to derive tumor-doubling time (DT). Kaplan-Meier survival curve was plotted for each group (Log-rank test). (D) Proteins were detected by immunoblotting, 3 tumors per group. (E) Tumor lysates were used to quantitate AOs, 5 tumors per group (mean±SD, n=3, ANOVA). (F) Tumor lysates were used to seed Aβ1-42 peptides, 5 tumors per group (mean±SD, n=3, ANOVA). (G-H) Tumor sections were stained with CR, 5 tumors per group. […] Total CR fluorescence in each field was quantitated using ImageJ and normalized against total nuclei (median, n=50, ANOVA). […] Body weights were monitored weekly (mean±SD, n=10, ANOVA). […]
A2058 cells were s.c. injected into the left flanks of 9-week-old female NOD.CB17-Prkdc/J (NOD/SCID) mice (The Jackson Laboratory). […] Tumor volumes were calculated following the formula 4/3πR^3. […]

A2058 cells [4] = assay: In vivo CR administration in A2058 xenograft with or without combined treatment; design: species or system NOD/SCID mice
Procedure: FIGS. 7A-H show amyloidogenesis suppresses tumor growth. (A) Sections of melanomas receiving combined treatment were stained with cleaved caspase 3 antibodies followed by CR staining Arrowheads and arrows indicate condensed and fragmented nuclei, respectively. Scale bar: 50 μm. (B) 1×10^6 A2058 cells were s.c. injected into NOD/SCID mice. After 7 days, mice were treated with 1 mg/30 g CR via i.p. injection one day prior to combined treatment. Tumor volumes were measured weekly (mean±SD, ANOVA). […] Lysis buffer containing CR served as a positive control. (D) Kaplan-Meier survival curves were compared (Log-rank test). (E and F) Both detergent-soluble and -insoluble fractions of tumor lysates were used to quantitate amyloids, 3 tumors per group (mean±SD, n=3, Student's t-test). (G) Proteins were detected by immunoblotting, 3 tumors per group. (H) Schematic depiction of the interplay among MEK, ERK, and HSF1, and its role in regulating proteome stability. Balanced proteostasis suppresses toxic protein aggregation and amyloidogenesis, thereby facilitating tumorigenesis. See also FIG. 14.
This figure is related to FIG. 7. (A) CR treatment stimulates in vivo melanoma growth and renders melanomas partially resistant to combined MEK and proteasome inhibition. Tumors were harvested at sacrifice and weighed (mean±SD, n=10, ANOVA). (B) CR treatment exacerbates body weight loss in tumor-bearing mice. Body weights were recorded before xenografting and at sacrifice. To derive net body weights of melanoma-bearing mice, tumor weights were subtracted from total body weights. Results are presented as body weight changes before and after xenografting (paired Student's t-test).
A2058 cells were s.c. injected into the left flanks of 9-week-old female NOD.CB17-Prkdc/J (NOD/SCID) mice (The Jackson Laboratory). For CR treatment, mice were i.p. injected with PBS or CR one day prior to combined AZD6244 and Bortezomib treatments. Tumor volumes were calculated following the formula 4/3πR^3. For experimental metastasis, engineered A2058 cells were transplanted into 10-week-old female NOD/SCID mice via tail vein injections. All mouse experiments were performed under a protocol approved by The Jackson Laboratory Animal Care and Use Committee.

Nc1[nH]nc2nnc(-c3c(-c4ccccc4)nn4ccccc34)cc12 [FR180204]
transcriptional activation of HSF1 (HSF1): activated
ERK phosphorylation (ERK): promoted
phosphorylation of myelin basic protein (MBP) by precipitated ERK complexes [1]: blocked
HSF1 Ser326 phosphorylation (HSF1 Ser326): enhances

Cn1cnc2c(F)c(Nc3ccc(Br)cc3Cl)c(C(=O)NOCCO)cc21 [AZD6244, selumetinib]
increase in ubiquitination of RPL3 (A2058 cells [2]): 13.7 fold
increase in ubiquitination of TOR1AIP2 (A2058 cells [2]): 61.0 fold
mice with luminescence detected by in vivo imaging (A2058 cells [3]): 40%

O=C(Nc1ccc2[nH]nc(-c3ccncc3)c2c1)[C@@H]1CCN(CC(=O)N2CCN(c3ccc(-c4ncccn4)cc3)CC2)C1 [Sch772984]
transcriptional activation of HSF1 (HSF1): activated
ERK phosphorylation (ERK): suppressed
HSF1 Ser326 phosphorylation (HSF1 Ser326): enhances

Nc1c(/N=N/c2ccc(-c3ccc(/N=N/c4cc(S(=O)(=O)O)c5ccccc5c4N)cc3)cc2)cc(S(=O)(=O)O)c2ccccc12 [CR, Congo red]
melanoma growth (A2058 cells [4]; 1 mg/30 g CR i.p.): accelerated
tumor suppression imposed by combined MEK and proteasome inhibition (A2058 cells [4]; 1 mg/30 g CR i.p. one day prior to combined treatment): potently antagonized
amyloids in tumor tissues (A2058 cells [4]; CR treatment): reduced
animal survival (A2058 cells [4]; CR treatment): shortened
body conditions (A2058 cells [4]; CR treatment): deteriorated
tumor masses (A2058 cells [4]; CR treatment): enlarged
ubiquitination in tumors (A2058 cells [4]; CR treatment): did not diminish
caspase 3 cleavage in tumors (A2058 cells [4]; CR-treated tumors): reduced
penetration of CR into tumor tissues (A2058 cells [4]; absorbance of tumor lysates): intense light absorption of tumor lysates at 498 nm
